Like-named read-outs stand apart in the source and are kept apart here.
Columns and labels:
[1] = tested on: galium; experiment: Test C pre-/postemergence herbicide test; assay type: in vivo, Galium aparine
Description: Seeds of plant species selected from blackgrass (Alopecurus myosuroides), ryegrass, Italian (Italian ryegrass, Lolium multiflorum), wheat (winter wheat, Triticum aestivum), galium (catchweed bedstraw, Galium aparine), corn (Zea mays), crabgrass, large (large crabgrass, Digitaria sanguinalis), foxtail, giant (giant foxtail, Setaria faberii), johnsongrass (Sorghum halepense), lambsquarters (Chenopodium album), morningglory (Ipomoea coccinea), nutsedge, yellow (yellow nutsedge, Cyperus esculentus), pigweed (Amaranthus retroflexus), ragweed (common ragweed, Ambrosia elatior), soybean (Glycine max), barnyardgrass (Echinochloa crus-galli), oilseed rape (Brassica napus), waterhemp (common waterhemp, Amaranthus rudis), kochia (Kochia scoparia), oat, wild (wild oat, Avena fatua), surinam grass (Brachiaria decumbens), foxtail, green (green foxtail, Setaria viridis), goosegrass (Eleusine indica), bromegrass, downy (downy bromegrass, Bromus tectorum), nightshade (eastern black nightshade, Solanum ptycanthum), cocklebur (common cocklebur, Xanthium strumarium), cupgrass, woolly (woolly cupgrass, Eriochloa villosa), bermudagrass (Cynodon dactylon), sunflower, (common oilseed sunflower, Helianthus annuus), Russian thistle (Salsola kali) and velvetleaf (Abutilon theophrasti) were planted into a blend of loam soil and sand and treated preemergence with test chemicals formulated in a non-phytotoxic solvent mixture which included a surfactant. At the same time, plants selected from these crop and weed species and also barley (winter barley, Hordeum vulgare), […]), chickweed (common chickweed, Stellaria media), deadnettle (henbit deadnettle, Lamium amplexicaule), and canarygrass (littleseed canarygrass, Phalaris minor) were planted in pots containing Redi-Earth® planting medium (Scotts Company, 14111 Scottslawn Road, Marysville, Ohio 43041) comprising spaghnum peat moss, vermiculite, wetting agent and starter nutrients and treated with postemergence applications of test chemicals formulated in the same manner. Plants ranged in height from 2 to 18 cm (1- to 4-leaf stage) for postemergence treatments. Treated plants and controls were maintained in a greenhouse for 13 to 15 days, after which time all species were compared to controls and visually evaluated. Plant response ratings, summarized in Table C, are based on a scale of 0 to 100 where 0 is no effect and 100 is complete control. A dash (-) response means no test result.

[2] = tested on: barnyardgrass; experiment: Test B flooded paddy test; assay type: in vivo, Echinochloa crus-galli; conditions: 250 g ai/ha, Flood; scale of 0 to 100 where 0 is no effect and 100 is complete control
Procedure, shortened: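 Visual ratings from 0, meaning no effect, up to 100, meaning complete control, were made by comparison with untreated controls 13 to 15 days after treatment. Test compounds went straight into floodwater standing 3 cm over the soil of pots holding 2-leaf seedlings.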

[3] = tested on: corn; experiment: Test A pre-/postemergence herbicide test; assay type: in vivo, Zea mays; conditions: for Corn plant response rating: Preemergence, visual rating on 0 to 100 scale (0 no effect, 100 complete control); for Corn plant response rating (crop injury, 0 = no effect, 100 = complete kill) at 125 g/ha / Corn plant response rating (crop injury, 0 = no effect, 100 = complete kill) at 500 g/ha: Zea mays, 240 h
Procedure, shortened: (§1)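 Scoring was visual, relative to untreated controls, on a 0–100 scale after about 10 greenhouse days. Preemergence treatment used a directed soil spray over seeded loam/sand; postemergence treatment targeted one- to two-leaf plants of 2–10 cm.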

[4] = tested on: barnyardgrass; experiment: Test A pre-/postemergence herbicide test; assay type: in vivo, Echinochloa crus-galli; conditions: for pest or weed control at 125 g/ha / pest or weed control at 500 g/ha: Echinochloa crus-galli, 240 h, read-out: Plant response rating, Barnyardgrass; for Barnyardgrass plant response rating: Preemergence, visual rating on 0 to 100 scale (0 no effect, 100 complete control)
Procedure, shortened: as §1

[5] = tested on: lambsquarters; experiment: Test C pre-/postemergence herbicide test; assay type: in vivo, Chenopodium album
Procedure, shortened: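 Response scores range from 0, meaning no effect, to 100, meaning complete control, assigned visually by comparison with controls roughly two weeks (13 to 15 days) after spraying. Applications were made preemergence to seeded loam–sand soil and postemergence to 1- to 4-leaf plants.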

[6] = tested on: kochia; experiment: Test A pre-/postemergence herbicide test; assay type: in vivo, Kochia scoparia; conditions: for Plant response rating, Kochia: 0 to 100 scale
Procedure, shortened: as §1

[7] = tested on: blackgrass; experiment: Test A postemergence herbicide test; assay type: in vivo, Alopecurus myosuroides; conditions: for Plant response rating, Blackgrass: 125 g ai/ha, 0 to 100 scale, 0 is no effect, 100 is complete control; for Blackgrass plant response rating (0 to 100 scale, 0 is no effect, 100 is complete control): 500 g ai/ha
Procedure, shortened: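 Potted in loam soil/sand blend; postemergence application at 1–2 leaf stage (2–10 cm). Greenhouse ~10 d. Visual injury vs untreated, 0–100 scale; 100 = complete control.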

[8] = Postemergence, 31 g ai/ha, scale 0 (no effect) to 100 (complete control)
[9] = Postemergence, 62 g ai/ha, scale 0 to 100 (0 no effect, 100 complete control)
[10] = Postemergence, 125 g ai/ha, scale 0 to 100 (0 no effect, 100 complete control)
[11] = Postemergence, 250 g ai/ha, scale 0 to 100 (0 no effect, 100 complete control)
[12] = Preemergence, 31 g ai/ha, scale 0 to 100, 0 is no effect and 100 is complete control
[13] = Preemergence, 62 g ai/ha, scale 0 to 100
[14] = Preemergence, 125 g ai/ha, scale 0 to 100 (0 no effect, 100 complete control)
[15] = post-emergence, Postemergence, 125 g ai/ha, 0 to 100 scale, 0 no effect, 100 complete control
[16] = post-emergence, Postemergence, 500 g ai/ha, 0 to 100 scale (0 no effect, 100 complete control)
[17] = 125 g ai/ha, visual rating, 0 no effect, 100 complete control, approximately 10 days, preemergence
[18] = Postemergence, 125 g ai/ha, 0 is no effect, 100 is complete control
[19] = preemergence, 500 g ai/ha, 0 is no effect and 100 is complete control
[20] = Postemergence, 31 g ai/ha, scale 0 to 100 (0 no effect, 100 complete control)
[21] = Postemergence, 62 g ai/ha, scale 0 (no effect) to 100 (complete control)
[22] = Preemergence, 62 g ai/ha, scale 0 to 100 (0 no effect, 100 complete control)
[23] = post-emergence, Postemergence, 125 g ai/ha, 0 to 100 scale, 0 is no effect, 100 is complete control
[24] = Postemergence, 125 g ai/ha, 0 to 100 scale, 0 no effect, 100 complete control
[25] = Postemergence, 500 g ai/ha, 0 to 100 scale (0 no effect, 100 complete control)
[26] = Postemergence, 125 g ai/ha, 0 to 100 scale, 0 is no effect, 100 is complete control

| Compound | Plant response rating, Galium [1, 10] | Plant response rating, Galium [1, 11] | Galium plant response rating [1, 12] | Plant response rating, Galium [1, 14] | Plant response rating (scale of 0 to 100), Galium ([1]; Preemergence, 250 g ai/ha) | Plant response rating, Barnyardgrass [2] | Corn plant response rating ([3]; 125 g ai/ha) | Barnyardgrass plant response rating ([4]; 125 g ai/ha) | Plant response rating, Lambsquarters [5, 8] | Plant response rating, Lambsquarters [5, 9] | Plant response rating, Lambsquarters [5, 10] | Plant response rating, Lambsquarters [5, 11] | Lambsquarters plant response rating [5, 12] | Plant response rating, Lambsquarters [5, 14] | Plant response rating (scale of 0 to 100), Lambsquarters ([5]; Preemergence, 250 g ai/ha) | Plant response rating, Kochia [6, 17] | Plant response rating, Kochia [6, 18] | Kochia plant response rating (0 to 100 scale, 0 is no effect, 100 is complete control) ([6]; Postemergence, 500 g ai/ha) | Plant response rating, Kochia [6, 19] | Plant response rating, Galium [1, 20] | further results |
| --- | --- | --- | --- | --- | --- | --- | --- | --- | --- | --- | --- | --- | --- | --- | --- | --- | --- | --- | --- | --- | --- |
| O=C1NCC(c2ccc(C(F)(F)F)cc2)C1C(=O)Nc1cccc(F)c1F (stereo not drawn) [Compound 80, N-(2,3-difluorophenyl)-2-oxo-4-[4-(trifluoromethyl)phenyl]-3-pyrrolidinecarboxamide] | 65 | 65 | 5 | 90 | 90 | 30 | 0 | 80 | 55 | 55 | 60 | 70 | 40 | 90 | 90 | – | – | – | – | – | Plant response rating, Galium [1, 8]: 5; Plant response rating, Galium [1, 9]: 55; Plant response rating, Galium [1, 13]: 90; Corn plant response rating (crop injury, 0 = no effect, 100 = complete kill) at 125 g/ha [3, 15]: 30%; Corn plant response rating (crop injury, 0 = no effect, 100 = complete kill) at 500 g/ha [3, 16]: 60%; Corn plant response rating (crop injury, 0 = no effect, 100 = complete kill) at 500 g/ha ([3]; pre-emergence, preemergence, 500 g ai/ha, 0 to 100 scale): 0%; pest or weed control at 125 g/ha [4, 15]: 80%; pest or weed control at 500 g/ha [4, 16]: 80%; pest or weed control at 500 g/ha ([4]; pre-emergence, preemergence, 500 g ai/ha, 0 to 100 scale (0 no effect, 100 complete control)): 80%; Plant response rating, Lambsquarters [5, 13]: 85 |
| O=C1NC[C@H](c2cccc(C(F)(F)F)c2)[C@H]1C(=O)Nc1ccccc1F [Compound 204, (3R,4S)—N-(2-fluorophenyl)-2-oxo-4-[3-(trifluoromethyl)phenyl]-3-pyrrolidinecarboxamide] | 60 | 60 | – | 90 | 90 | – | – | – | – | – | 75 | 30 | 100 | 75 | 100 | 0 | 20 | 60 | 80 | 10 | Plant response rating, Galium [1, 21]: 45; Galium plant response rating [1, 22]: 90; Corn plant response rating (0 to 100 scale, 0 is no effect, 100 is complete control) ([3]; Postemergence, 500 g ai/ha): 80; Corn plant response rating (crop injury, 0 = no effect, 100 = complete kill) at 125 g/ha [3, 23]: 60%; pest or weed control at 125 g/ha [4, 23]: 90%; pest or weed control at 125 g/ha ([4]; pre-emergence, 125 g ai/ha, visual rating, 0 to 100 scale, 0 no effect, 100 complete control, approximately 10 days): 90%; pest or weed control at 500 g/ha ([4]; pre-emergence, preemergence, 500 g ai/ha, 0 to 100 scale, 0 is no effect and 100 is complete control): 90%; Barnyardgrass plant response rating (0 to 100 scale, 0 is no effect, 100 is complete control) ([4]; Postemergence, 500 g ai/ha): 90; Plant response rating, Lambsquarters [5, 20]: 35; Plant response rating, Lambsquarters [5, 21]: 65; Lambsquarters plant response rating [5, 22]: 100; Plant response rating, Blackgrass [7]: 70; Blackgrass plant response rating (0 to 100 scale, 0 is no effect, 100 is complete control) [7]: 80 |
| O=C1NCC(c2cc(F)c(F)cc2F)C1C(=O)Nc1cccc(F)c1F (stereo not drawn) [Compound 50] | – | – | – | – | – | 0 | 0 | 30 | 5 | 10 | 10 | 15 | – | – | – | – | – | – | – | – | Plant response rating, Corn [3, 24]: 0; Plant response rating, Corn [3, 25]: 0; Plant response rating, Corn ([3]; preemergence, 500 g ai/ha, 0 to 100 scale): 0; Plant response rating, Barnyardgrass [4, 24]: 80; Plant response rating, Barnyardgrass [4, 25]: 80; Plant response rating, Barnyardgrass ([4]; preemergence, 500 g ai/ha, 0 to 100 scale (0 no effect, 100 complete control)): 90 |
| O=C1NC[C@H](c2cccc(C(F)(F)F)c2)[C@H]1C(=O)Nc1cccc(F)c1F [Compound 206] | 75 | 75 | 20 | 70 | 85 | – | – | – | – | – | 10 | 20 | 75 | 100 | 100 | 70 | 70 | 70 | 80 | 60 | Plant response rating, Galium [1, 21]: 75; Galium plant response rating [1, 22]: 70; Plant response rating, Corn [3, 26]: 60; Corn plant response rating (0 to 100 scale, 0 is no effect, 100 is complete control) ([3]; Postemergence, 500 g ai/ha): 80; Plant response rating, Barnyardgrass ([4]; 125 g ai/ha, visual rating, 0 to 100 scale, 0 no effect, 100 complete control, approximately 10 days, preemergence): 90; Plant response rating, Barnyardgrass [4, 26]: 90; Barnyardgrass plant response rating (0 to 100 scale, 0 is no effect, 100 is complete control) ([4]; Postemergence, 500 g ai/ha): 90; Plant response rating, Barnyardgrass ([4]; preemergence, 500 g ai/ha, 0 to 100 scale, 0 is no effect and 100 is complete control): 90; Plant response rating, Lambsquarters [5, 20]: 50; Plant response rating, Lambsquarters [5, 21]: 75; Lambsquarters plant response rating [5, 22]: 100; Plant response rating, Blackgrass [7]: 70; Blackgrass plant response rating (0 to 100 scale, 0 is no effect, 100 is complete control) [7]: 80 |

— patent US10294202B2, “Pyrrolidinones as herbicides” (FMC Corporation, priority 2013, dated 2019)
